Earlier results, collected in patent US12622903B2, “Drug products for intranasal administration and uses thereof” (Summit Biosciences Inc., priority 2020, dated 2026).

Test system: opioid overdose

C=CCN1CC[C@]23c4c5ccc(O)c4O[C@H]2C(=O)CC[C@@]3(O)[C@H]1C5 [naloxone, 17-allyl-4,5a-epoxy-3,14-dihydroxymorphinan-6-one]
participants reporting serious adverse effects (DOPE Project participants): < 1%
overdose events reported reversed (of 399 overdose events where naloxone was used, participant reports): 89%
